Molecules are shown by their SMILES. pIC50: −log10 of the molar value.

The first assay concerns the target T1, TIR1–ASK1–IAA7 auxin receptor complex (ASK1–TIR1–Aux/IAA–IAA receptor complex) (Arabidopsis thaliana, UniProt Q570C0).
T1 construct: ASK1–TIR1 co-purified from insect cells; IAA7 ORF as recombinant His8-MBP fusion (pET28-His8-MBP vector); mixed at molar ratio 1:3 (ASK1–TIR1 : IAA7); with SKP1-like protein 1A; Auxin-responsive protein IAA7
T1 sequence (Q570C0 1-594): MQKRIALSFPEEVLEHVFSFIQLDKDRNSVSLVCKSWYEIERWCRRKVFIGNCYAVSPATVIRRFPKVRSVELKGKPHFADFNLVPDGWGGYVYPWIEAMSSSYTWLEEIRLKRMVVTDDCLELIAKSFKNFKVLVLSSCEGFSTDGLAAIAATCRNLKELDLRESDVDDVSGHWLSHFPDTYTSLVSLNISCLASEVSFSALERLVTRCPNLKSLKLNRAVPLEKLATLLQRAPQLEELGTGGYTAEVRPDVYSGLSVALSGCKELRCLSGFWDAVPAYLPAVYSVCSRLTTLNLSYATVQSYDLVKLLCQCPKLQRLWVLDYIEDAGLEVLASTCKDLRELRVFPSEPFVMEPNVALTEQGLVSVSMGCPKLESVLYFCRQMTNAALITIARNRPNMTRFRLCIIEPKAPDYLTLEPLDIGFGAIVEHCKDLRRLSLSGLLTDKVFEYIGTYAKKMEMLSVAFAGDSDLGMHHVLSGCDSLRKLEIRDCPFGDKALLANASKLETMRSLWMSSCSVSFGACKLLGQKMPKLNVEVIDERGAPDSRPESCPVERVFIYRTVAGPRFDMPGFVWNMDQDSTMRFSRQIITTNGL
T1 sequence (Q39255 1-160 partner): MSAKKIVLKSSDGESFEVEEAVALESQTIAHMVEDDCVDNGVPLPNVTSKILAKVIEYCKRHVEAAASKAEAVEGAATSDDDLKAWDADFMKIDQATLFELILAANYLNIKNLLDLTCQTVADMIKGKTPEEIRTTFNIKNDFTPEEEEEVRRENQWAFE
T1 sequence (Q38825 1-243 partner): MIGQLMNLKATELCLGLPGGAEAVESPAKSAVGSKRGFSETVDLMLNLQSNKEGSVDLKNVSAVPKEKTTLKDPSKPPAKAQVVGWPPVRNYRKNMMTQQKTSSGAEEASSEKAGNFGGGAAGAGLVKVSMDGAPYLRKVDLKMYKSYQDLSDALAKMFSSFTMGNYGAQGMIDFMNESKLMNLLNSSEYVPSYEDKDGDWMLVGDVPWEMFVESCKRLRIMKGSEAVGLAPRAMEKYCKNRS
Description: auxin-dependent pull-down of ASK1–TIR1 with [3H]-InsP6 by His8-MBP-IAA7. Conditions: 0.1 uM IAA versus no auxin; pH 7.5, 4 °C; read-out is recovered [3H]-InsP6. It counts as binding.
On to `O=C(O)Cc1c[nH]c2ccccc12` [IAA], for which the “auxin-dependent pull-down of ASK1-TIR1 with [3H]-InsP6 by His8-MBP-IAA7” value is “auxin is critical for the interaction between ASK–TIR1 and Aux/IAA protein”.

The next assay addresses T1, TIR1–ASK1–IAA7 auxin receptor complex (ASK1–TIR1–Aux/IAA–IAA receptor complex). Description: competitive radioligand displacement of [3H]-InsP6, Ni-NTA pull-down. Type of assay: binding.
Settings: not given
On the technique in general: In a radioligand displacement assay an active substance lowers the binding of a labelled ligand.
On to `O=P(O)(O)O[C@H]1[C@@H](OP(=O)(O)O)[C@H](OP(=O)(O)O)[C@@H](OP(=O)(O)OP(=O)(O)O)[C@H](OP(=O)(O)O)[C@H]1OP(=O)(O)O` [5-InsP7], for which the pIC50 (as a rule, the IC50 on a negative log10 scale, so that one unit is a factor of ten) was 7.70.
Same read-out and setting: for `O=P(O)(O)O[C@@H]1[C@@H](OP(=O)(O)O)[C@@H](OP(=O)(O)O)[C@@H](O)[C@H](OP(=O)(O)O)[C@H]1OP(=O)(O)O` [InsP5 [1-OH]] the value was 6.94.
Same read-out and setting: for `O=P(O)(O)O[C@@H]1[C@@H](OP(=O)(O)O)[C@H](OP(=O)(O)O)[C@@H](O)[C@@H](OP(=O)(O)O)[C@H]1OP(=O)(O)O` [InsP5 [3-OH]] the value was 7.51.
Same read-out and setting: to `O=P(O)(O)O[C@H]1[C@@H](OP(=O)(O)O)[C@H](OP(=O)(O)O)[C@@H](O)[C@H](OP(=O)(O)O)[C@H]1OP(=O)(O)O` [InsP5 [5-OH]] belongs 7.47; to `O=P(O)(O)O[C@H]1[C@H](OP(=O)(O)O)[C@@H](OP(=O)(O)O)[C@H](OP(=O)(O)O)[C@@H](OP(=O)(O)O)[C@H]1OP(=O)(O)O` [InsP6], 7.72.

Source of the values: publication PMC9706486, “INOSITOL (1,3,4) TRIPHOSPHATE 5/6 KINASE1-dependent inositol polyphosphates regulate auxin responses in Arabidopsis” (Plant Physiology, 2022).
